In patent US11078228B2, “Ectonucleotidase inhibitors and methods of use thereof” (Calithera Biosciences, Inc., priority 2018, dated 2021):

What was measured:
recombinant CD73 [1] = target: T1, recombinant CD73 (Homo sapiens (Human), UniProt P21589); experiment: Assay 1: Inhibition of the CD73 enzyme in vitro (0.5 nM CD73, 30 min room temperature, Malachite Green); format: biochemical; settings: 0.5 nM CD73, 30 minutes at room temperature
Procedure: For measurements of soluble CD73 enzyme activity, recombinant CD73 was obtained from R&D Systems, Cat. No. 5795-EN-010. […] Reactions were allowed to proceed for 30 minutes at room temperature before the addition of 100 μL Malachite Green (Cell Signaling Technology, Cat. No. 12776). After 5 minutes at room temperature, absorbance at 630 nm was determined on a microplate spectrophotometer. The concentration of inorganic phosphate was determined using a phosphate standard curve.

recombinant CD73 [2] = target: T1, recombinant CD73; experiment: Assay 2: Inhibition of the CD73 enzyme in vitro (0.05 nM CD73, 1 hour 37° C., Malachite Green); format: biochemical; settings: 0.05 nM CD73, 50 μM AMP, 1 hour at 37° C.
Outline: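 Soluble recombinant CD73 reactions ran 1 hour at 37° C. Malachite Green was then added, and absorbance at 630 nm was read after 5 min at room temperature. Inorganic phosphate was quantified from a phosphate standard curve.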

T1 sequence (P21589 27-547): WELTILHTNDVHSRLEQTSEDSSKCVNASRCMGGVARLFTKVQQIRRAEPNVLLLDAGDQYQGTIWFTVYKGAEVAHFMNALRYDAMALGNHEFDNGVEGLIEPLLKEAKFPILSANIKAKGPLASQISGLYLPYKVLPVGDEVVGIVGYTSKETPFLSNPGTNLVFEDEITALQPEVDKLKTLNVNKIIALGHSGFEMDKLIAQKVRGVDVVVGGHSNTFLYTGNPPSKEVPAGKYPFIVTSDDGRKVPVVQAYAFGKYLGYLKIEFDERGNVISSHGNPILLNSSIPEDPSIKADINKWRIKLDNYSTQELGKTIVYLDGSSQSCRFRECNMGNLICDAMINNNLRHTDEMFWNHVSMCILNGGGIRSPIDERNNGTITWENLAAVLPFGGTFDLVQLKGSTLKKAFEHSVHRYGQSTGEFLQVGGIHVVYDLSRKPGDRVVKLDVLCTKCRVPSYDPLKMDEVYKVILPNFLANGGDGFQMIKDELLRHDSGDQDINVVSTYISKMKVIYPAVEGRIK

| IC50 (recombinant CD73 [1]) | IC50 (recombinant CD73 [2]) | Structure (SMILES) |
| --- | --- | --- |
| 9 nM |  | C#C[C@@]1(O)[C@@H](CO[C@](Cc2ccccc2)(C(=O)O)c2cscn2)O[C@@H](n2cnc3c(N)nc(Cl)nc32)[C@@H]1O (single isomer, unassigned) [Example 180] |
| 21 nM |  | C#C[C@@]1(O)[C@@H](CO[C@@](Cc2ccccc2)(C(=O)O)c2cscn2)O[C@@H](n2cnc3c(N)nc(Cl)nc32)[C@@H]1O (single isomer, unassigned) [Example 181] |
| 11700 nM |  | C#C[C@@]1(O)[C@@H](COC(C(=O)NO)c2cscn2)O[C@@H](n2cnc3c(N)nc(Cl)nc32)[C@@H]1O (single isomer, unassigned) [Example 185] |
| 8830 nM |  | C#C[C@@]1(O)[C@@H](COC(C(=O)NO)c2cscn2)O[C@@H](n2cnc3c(N)nc(Cl)nc32)[C@@H]1O (single isomer, unassigned) [Example 186] |
| 1850 nM |  | C#C[C@@]1(O)[C@@H](CO[C@](C#N)(Cc2ccccc2)C(=O)O)O[C@@H](n2cnc3c(N)nc(Cl)nc32)[C@@H]1O (single isomer, unassigned) [Example 189] |
| 9320 nM |  | C#C[C@@]1(O)[C@@H](CO[C@@](C#N)(Cc2ccccc2)C(=O)O)O[C@@H](n2cnc3c(N)nc(Cl)nc32)[C@@H]1O (single isomer, unassigned) [Example 190] |
| 263 nM |  | C#C[C@@]1(O)[C@@H](CO[C@H](C(=O)O)c2csc(-c3ccccc3)n2)O[C@@H](n2cnc3c(N)nc(Cl)nc32)[C@@H]1O (single isomer, unassigned) [Example 193] |
| 336 nM |  | C#C[C@@]1(O)[C@@H](CO[C@@H](C(=O)O)c2csc(-c3ccccc3)n2)O[C@@H](n2cnc3c(N)nc(Cl)nc32)[C@@H]1O (single isomer, unassigned) [Example 194] |
| 2270 nM |  | C[C@@]1(O)[C@@H](CO[C@](Cc2ccc(-c3ccccc3)cc2)(C(=O)O)c2cscn2)O[C@@H](n2cnc3c(N)nc(Cl)nc32)[C@@H]1O (single isomer, unassigned) [Example 198] |
| 5760 nM |  | C[C@@]1(O)[C@@H](CO[C@@](Cc2ccc(-c3ccccc3)cc2)(C(=O)O)c2cscn2)O[C@@H](n2cnc3c(N)nc(Cl)nc32)[C@@H]1O (single isomer, unassigned) [Example 199] |
| 5 nM |  | C#C[C@@]1(O)[C@@H](COC(Cc2cccc(OC(F)(F)F)c2)(C(=O)O)C(=O)O)O[C@@H](n2cnc3c(N)nc(Cl)nc32)[C@@H]1O [Example 23, 2-(((2R,3S,4R,5R)-5-(6-amino-2-chloro-9H-purin-9-yl)-3-ethynyl-3,4-dihydroxytetrahydrofuran-2-yl)methoxy)-2-(3-(trifluoromethoxy)benzyl)malonic acid] |
| 1.8 nM |  | C#C[C@@]1(O)[C@@H](COC(Cc2ccsc2)(C(=O)O)C(=O)O)O[C@@H](n2cnc3c(N)nc(Cl)nc32)[C@@H]1O [Example 24, 2-(((2R,3S,4R,5R)-5-(6-amino-2-chloro-9H-purin-9-yl)-3-ethynyl-3,4-dihydroxytetrahydrofuran-2-yl)methoxy)-2-(thiophen-3-ylmethyl)malonic acid] |
| 7 nM |  | C#CCC(OC[C@H]1O[C@@H](n2cnc3c(N)nc(Cl)nc32)[C@H](O)[C@@]1(O)C#C)(C(=O)O)C(=O)O [Example 25, 2-(((2R,3S,4R,5R)-5-(6-amino-2-chloro-9H-purin-9-yl)-3-ethynyl-3,4-dihydroxytetrahydrofuran-2-yl)methoxy)-2-(prop-2-yn-1-yl)malonic acid] |
| 58 nM |  | C#C[C@@]1(O)[C@@H](COC(C(=O)O)C(=O)O)O[C@@H](n2cnc3c(N)nc(Cl)nc32)[C@@H]1O [Example 26, 2-(((2R,3S,4R,5R)-5-(6-amino-2-chloro-9H-purin-9-yl)-3-ethynyl-3,4-dihydroxytetrahydrofuran-2-yl)methoxy)malonic acid] |
| 18 nM |  | Nc1nc(Cl)nc2c1ncn2[C@@H]1O[C@H](COC(C(=O)O)C(=O)O)[C@](O)(C#Cc2cc[nH]n2)[C@H]1O [Example 27, 2-(((2R,3S,4R,5R)-3-((1H-pyrazol-3-yl)ethynyl)-5-(6-amino-2-chloro-9H-purin-9-yl)-3,4-dihydroxytetrahydrofuran-2-yl)methoxy)malonic acid] |
| 3 nM |  | Nc1nc(Cl)nc2c1ncn2[C@@H]1O[C@H](COC(C(=O)O)C(=O)O)[C@](O)(C#Cc2ccn(Cc3ccccc3)n2)[C@H]1O [Example 28, 2-(((2R,3S,4R,5R)-5-(6-amino-2-chloro-9H-purin-9-yl)-3-((1-benzyl-1H-pyrazol-3-yl)ethynyl)-3,4-dihydroxytetrahydrofuran-2-yl)methoxy)malonic acid] |
| 2 nM |  | Nc1nc(Cl)nc2c1ncn2[C@@H]1O[C@H](COC(C(=O)O)C(=O)O)[C@](O)(C#Cc2ccnn2Cc2ccccc2)[C@H]1O [Example 29, 2-(((2R,3S,4R,5R)-5-(6-amino-2-chloro-9H-purin-9-yl)-3-((1-benzyl-1H-pyrazol-5-yl)ethynyl)-3,4-dihydroxytetrahydrofuran-2-yl)methoxy)malonic acid] |
| 273 nM |  | C#C[C@@]1(O)[C@@H](COC(Cc2cccc(C(F)(F)F)c2)(C(=O)O)C(=O)OCC)O[C@@H](n2cnc3c(N)nc(Cl)nc32)[C@@H]1O (stereo partly drawn) [Example 49, 2-(((2R,3S,4R,5R)-5-(6-amino-2-chloro-9H-purin-9-yl)-3-ethynyl-3,4-dihydroxytetrahydrofuran-2-yl)methoxy)-3-ethoxy-3-oxo-2-(3-(trifluoromethyl)-benzyl)propanoic acid] |
| 3 nM |  | C#C[C@@]1(O)[C@@H](COC(Cc2cccc(C(F)(F)F)c2)(C(=O)O)C(=O)O)O[C@@H](n2cnc3c(N)nc(Cl)nc32)[C@@H]1O [Example 50, 2-(((2R,3S,4R,5R)-5-(6-amino-2-chloro-9H-purin-9-yl)-3-ethynyl-3,4-dihydroxytetrahydrofuran-2-yl)methoxy)-2-(3-(trifluoromethyl)benzyl)malonic acid] |
| 3 nM |  | C#C[C@@]1(O)[C@@H](COC(Cc2cccc(Cl)c2)(C(=O)O)C(=O)O)O[C@@H](n2cnc3c(N)nc(Cl)nc32)[C@@H]1O [Example 51, 2-(((2R,3S,4R,5R)-5-(6-amino-2-chloro-9H-purin-9-yl)-3-ethynyl-3,4-dihydroxytetrahydrofuran-2-yl)methoxy)-2-(3-chlorobenzyl)malonic acid] |
| 4 nM |  | C#C[C@@]1(O)[C@@H](COC(Cc2cccc(OC)c2)(C(=O)O)C(=O)O)O[C@@H](n2cnc3c(N)nc(Cl)nc32)[C@@H]1O [Example 52, 2-(((2R,3S,4R,5R)-5-(6-amino-2-chloro-9H-purin-9-yl)-3-ethynyl-3,4-dihydroxytetrahydrofuran-2-yl)methoxy)-2-(3-methoxybenzyl)malonic acid] |
| 35 nM |  | CC[C@@]1(O)[C@@H](COC(C(=O)O)C(=O)O)O[C@@H](n2cnc3c(N)nc(Cl)nc32)[C@@H]1O [Example 55, 2-(((2R,3S,4R,5R)-5-(6-amino-2-chloro-9H-purin-9-yl)-3-ethyl-3,4-dihydroxytetrahydrofuran-2-yl)methoxy)malonic acid] |
| 1 nM |  | C#C[C@@]1(O)[C@@H](COC(Cc2ccccc2)(C(=O)O)C(=O)O)O[C@@H](n2cnc3c(NCc4ccccc4)nc(Cl)nc32)[C@@H]1O [Example 59, 2-benzyl-2-(((2R,3S,4R,5R)-5-(6-(benzylamino)-2-chloro-9H-purin-9-yl)-3-ethynyl-3,4-dihydroxytetrahydrofuran-2-yl)methoxy)malonic acid] |
| 3 nM |  | C#C[C@@]1(O)[C@@H](COC(Cc2ccccc2)(C(=O)O)C(=O)O)O[C@@H](n2cnc3c(NC4CCOCC4)nc(Cl)nc32)[C@@H]1O [Example 60, 2-benzyl-2-(((2R,3S,4R,5R)-5-(2-chloro-6-((tetrahydro-2H-pyran-4-yl)amino)-9H-purin-9-yl)-3-ethynyl-3,4-dihydroxytetrahydrofuran-2-yl)methoxy)malonic acid] |
|  | 17 nM | C#C[C@@]1(O)[C@@H](COC(Cc2ccc(OC(F)(F)F)cc2)(C(=O)O)c2cscn2)O[C@@H](n2cnc3c(NC(C)C)nc(Cl)nc32)[C@@H]1O (stereo partly drawn) [Example 174, 2-(((2R,3S,4R,5R)-5-(2-chloro-6-(isopropylamino)-9H-purin-9-yl)-3-ethynyl-3,4-dihydroxytetrahydrofuran-2-yl)methoxy)-2-(thiazol-4-yl)-3-(4-(trifluoromethoxy)phenyl)propanoic acid] |
|  | 1 nM | C#C[C@@]1(O)[C@@H](COC(Cc2ccc(N3CCCNC3=O)cc2)(C(=O)O)c2cscn2)O[C@@H](n2cnc3c(N)nc(Cl)nc32)[C@@H]1O (stereo partly drawn) [Example 175, 2-(((2R,3S,4R,5R)-5-(6-amino-2-chloro-9H-purin-9-yl)-3-ethynyl-3,4-dihydroxytetrahydrofuran-2-yl)methoxy)-3-(4-(2-oxotetrahydropyrimidin-1 (2H)-yl)phenyl)-2-(thiazol-4-yl)propanoic acid] |
|  | 5 nM | C#C[C@@]1(O)[C@@H](COC(Cc2ccc(N3CCCNC3=O)cc2)(C(=O)O)c2cscn2)O[C@@H](n2cnc3c(NC(C)C)nc(Cl)nc32)[C@@H]1O (stereo partly drawn) [Example 176, 2-(((2R,3S,4R,5R)-5-(2-chloro-6-(isopropylamino)-9H-purin-9-yl)-3-ethynyl-3,4-dihydroxytetrahydrofuran-2-yl)methoxy)-3-(4-(2-oxotetrahydropyrimidin-1(2H)-yl)phenyl)-2-(thiazol-4-yl)propanoic acid] |
|  | 0.73 nM | C#C[C@@]1(O)[C@@H](COC(Cc2ccc(-c3cccnc3N)cc2)(C(=O)O)C(=O)O)O[C@@H](n2cnc3c(N)nc(Cl)nc32)[C@@H]1O [Example 197, 2-(((2R,3S,4R, 5R)-5-(6-amino-2-chloro-9H-purin-9-yl)-3-ethynyl-3,4-dihydroxytetrahydrofuran-2-yl)methoxy)-2-(4-(2-aminopyridin-3-yl)benzyl)malonic acid] |
